Experimental data published in patent publication US20250129068A1 (IP2IPO INNOVATIONS LIMITED, priority 2021, published 2025).

Each compound was assayed against full-length human GCN2 enzyme (Homo sapiens (Human), UniProt Q9P2K8) (assay: GCN2 enzyme inhibition, LanthaScreen TR-FRET Kinase Activity assay). Conditions: 10 μM ATP; mean of 1 to 3 replicate assays.
Chain of full-length human GCN2 enzyme (Q9P2K8 whole entry): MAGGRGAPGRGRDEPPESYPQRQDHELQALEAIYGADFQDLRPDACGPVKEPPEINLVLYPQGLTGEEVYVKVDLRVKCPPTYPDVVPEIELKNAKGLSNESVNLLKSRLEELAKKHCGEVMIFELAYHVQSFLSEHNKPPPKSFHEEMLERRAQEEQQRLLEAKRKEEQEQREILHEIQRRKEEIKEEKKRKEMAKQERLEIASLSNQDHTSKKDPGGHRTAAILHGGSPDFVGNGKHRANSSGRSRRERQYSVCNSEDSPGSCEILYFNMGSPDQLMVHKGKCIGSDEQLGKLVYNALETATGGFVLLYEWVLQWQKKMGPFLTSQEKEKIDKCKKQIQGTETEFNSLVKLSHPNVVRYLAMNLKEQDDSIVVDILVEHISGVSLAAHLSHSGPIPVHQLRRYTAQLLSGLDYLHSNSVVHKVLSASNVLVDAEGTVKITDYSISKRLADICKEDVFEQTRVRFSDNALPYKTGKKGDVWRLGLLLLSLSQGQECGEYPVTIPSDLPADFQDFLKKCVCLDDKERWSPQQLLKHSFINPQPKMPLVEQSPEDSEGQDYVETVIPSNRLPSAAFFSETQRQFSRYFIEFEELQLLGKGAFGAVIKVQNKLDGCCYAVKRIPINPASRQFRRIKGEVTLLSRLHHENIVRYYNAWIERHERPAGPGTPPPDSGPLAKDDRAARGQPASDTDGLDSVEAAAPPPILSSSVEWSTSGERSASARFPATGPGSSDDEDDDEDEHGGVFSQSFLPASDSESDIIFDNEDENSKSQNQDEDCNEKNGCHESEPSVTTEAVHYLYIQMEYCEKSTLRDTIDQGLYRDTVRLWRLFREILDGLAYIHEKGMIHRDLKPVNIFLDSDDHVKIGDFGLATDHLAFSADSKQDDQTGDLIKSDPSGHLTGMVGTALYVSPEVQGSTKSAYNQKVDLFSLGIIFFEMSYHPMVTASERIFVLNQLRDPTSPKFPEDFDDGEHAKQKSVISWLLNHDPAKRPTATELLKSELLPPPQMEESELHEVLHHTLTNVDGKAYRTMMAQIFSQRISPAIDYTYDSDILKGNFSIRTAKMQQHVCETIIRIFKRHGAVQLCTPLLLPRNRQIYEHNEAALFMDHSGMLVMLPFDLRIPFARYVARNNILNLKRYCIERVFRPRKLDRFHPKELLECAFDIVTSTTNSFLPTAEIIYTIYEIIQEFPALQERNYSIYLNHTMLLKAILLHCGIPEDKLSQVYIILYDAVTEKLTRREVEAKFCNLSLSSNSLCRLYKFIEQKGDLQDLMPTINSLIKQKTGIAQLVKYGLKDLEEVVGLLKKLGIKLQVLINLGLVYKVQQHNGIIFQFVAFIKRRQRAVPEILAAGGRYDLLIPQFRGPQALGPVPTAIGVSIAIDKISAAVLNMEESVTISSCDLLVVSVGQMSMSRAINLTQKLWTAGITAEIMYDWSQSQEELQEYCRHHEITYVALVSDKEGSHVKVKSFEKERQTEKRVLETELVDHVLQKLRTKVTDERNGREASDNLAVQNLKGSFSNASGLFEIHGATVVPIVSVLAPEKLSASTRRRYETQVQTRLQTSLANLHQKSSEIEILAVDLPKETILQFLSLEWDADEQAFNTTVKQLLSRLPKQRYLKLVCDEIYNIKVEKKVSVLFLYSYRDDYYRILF
Format: biochemical
Description: The inhibitory activity of the Example compounds towards GCN2 enzyme was measured according to the description below, using a LanthaScreen TR-FRET (Time Resolved Fluorescence Resonance Energy Transfer) Kinase Activity assay distributed by ThermoFisher Scientific.
The full-length human GCN2 enzyme (UniProt accession number Q9P2K8) was used for all experiments (Carna Bioscience). The TR-FRET pair was composed of GFP-elF2a and LanthaScreen Terbium-labeled anti-pelF2a (pSer52) Antibody.
Each example compound was dissolved in DMSO (0.15 mM) and dispensed in a 384-well plate by a D300 dispenser (Tecan) to a final concentration range 3000-0.13 nM using the logarithmic dilution mode in 2 replicates. Full inhibition (3000 nM commercial reference inhibitor) and DMSO vehicle control wells were also included on the same plate. All volumes were normalized to the final DMSO concentration of 2% of the reaction volume. Next, 5 μL of H2O was added to each well of the plate.
The enzyme mixture was prepared to obtain the following concentrations: • GCN2—30 nM • unloaded tRNA—0.3 nM • HEPES (pH=7.0)—100 mM • MgCl2—20 mM; MnCl2—10 mM
The mixture was applied by adding 5 μL to each well of the plate. The enzyme and the tested compound were then incubated at room temperature for 20 min while shaking at 450 rpm.
The substrate mixture was prepared to obtain the following concentrations: • GFP-elF2α—240 nM • ATP-30 PM • HEPES (pH=7.0)—50 mM • MgCl2—10 mM • MnCl2—5 mM.
The mixture was applied by adding 5 μL to each well of the plate. Thus, the final concentrations of the 15 μL reaction mixture were as follows: • GCN2—10 nM • unloaded tRNA—0.1 nM • GFP-elF2α—80 nM • ATP-10 μM • HEPES (1 M, pH=7.0)—50 mM • MgCl2—10 mM • MnCl2—5 mM.
The reaction was allowed to proceed at room temperature for 30 min while shaking at 450 rpm.
The antibody mixture was prepared to obtain the following concentrations: • Na2EDTA·2H2O—40 mM, in TR-FRET Dilution Buffer (Life technologies) • Tb-anti-pelF2a antibodies—4 nM.
The mixture was applied by adding 15 μL to each well. The plate was then incubated at room temperature for 60 min while shaking at 450 rpm and then read using Tecan Spark reader using specific TR-FRET filters.
The analysis of the GFP/Tb fluorescence results was conducted with GraphPad Prism to determine IC50 for each of the example compounds using 4-parameter model: log (inhibitor) vs. response-variable slope. IC50 and Ki values were calculated in the usual way. The assay was carried out between 1 and 3 times. The results in the table below are the mean results from replicate assays for the compound in question, where applicable.
`COc1ncc(C#N)cc1S(=O)(=O)Nc1nccc(C#Cc2cnc3[nH]ncc3c2)c1F` [Example 12, 5-Cyano-N-[3-fluoro-4-(2-{1H-pyrazolo[3,4-b]pyridin-5-yl}ethynyl)pyridin-2-yl]-2-methoxypyridine-3-sulfonamide] was tested, and the Ki was 7.76 nM.
Work on `CCOc1ncc(Cl)cc1S(=O)(=O)Nc1nccc(C#Cc2cnc3[nH]ncc3c2)c1F` [Example 18, 5-Chloro-2-ethoxy-N-[3-fluoro-4-(2-{1H-pyrazolo[3,4-b]pyridin-5-yl}ethynyl)-pyridin-2-yl]pyridine-3-sulfonamide] yielded a Ki of 8.83 nM.
`Cc1ccc(S(=O)(=O)Nc2nccc(C#Cc3cnc4[nH]ncc4c3)c2F)c(C)n1` [Example 14, N-[3-Fluoro-4-(2-{1H-pyrazolo[3,4-b]pyridin-5-yl}ethynyl)pyridin-2-yl]-2,6-dimethylpyridine-3-sulfonamide] gave a Ki of 17.8 nM.
`COc1cccc(S(=O)(=O)Nc2nccc(C#Cc3cnc4[nH]ncc4c3)c2F)c1F` [Example 1, 2-Fluoro-N-[3-fluoro-4-(2-{1H-pyrazolo[3,4-b]pyridin-5-yl}ethynyl)pyridin-2-yl]-3-methoxybenzene-1-sulfonamide] gave a Ki of 172 nM.
`O=S(=O)(Nc1nccc(C#Cc2cnc3[nH]ncc3c2)c1F)c1cncc(Cl)c1` [Example 7, 5-Chloro-N-[3-fluoro-4-(2-{1H-pyrazolo[3,4-b]pyridin-5-yl}ethynyl)pyridin-2-yl]pyridine-3-sulfonamide] showed a Ki of 127 nM.
In the case of `COc1ncc(C(F)(F)F)cc1S(=O)(=O)Nc1nccc(C#Cc2cnc3[nH]ncc3c2)c1F` [Example 5, N-[3-Fluoro-4-(2-{1H-pyrazolo[3,4-b]pyridin-5-yl}ethynyl)pyridin-2-yl]-2-methoxy-5-(trifluoromethyl)pyridine-3-sulfonamide], the Ki is reported as 5.78 nM.
With `O=S(=O)(Nc1nccc(C#Cc2cnc3[nH]ncc3c2)c1F)c1ccc(Cl)cc1CO` [Example 19] the Ki was 65 nM.
`N#Cc1cccc(S(=O)(=O)Nc2nccc(C#Cc3cnc4[nH]ncc4c3)c2F)c1` [Example 2, 3-Cyano-N-[3-fluoro-4-(2-{1H-pyrazolo[3,4-b]pyridin-5-yl}ethynyl)pyridin-2-yl]benzene-1-sulfonamide] gave a Ki of 107 nM.
Work on `COc1ncc(C)cc1S(=O)(=O)Nc1nccc(C#Cc2cnc3[nH]ncc3c2)c1F` [Example 9, N-[3-Fluoro-4-(2-{1H-pyrazolo[3,4-b]pyridin-5-yl}ethynyl)pyridin-2-yl]-2-methoxy-5-methyl-pyridine-3-sulfonamide] yielded a Ki of 6.6 nM.
Work on `O=S(=O)(Nc1nccc(C#Cc2cnc3[nH]ncc3c2)c1F)c1cc(Cl)cnc1CCO` [Example 20, 5-chloro-N-[3-fluoro-4-(2-{1H-pyrazolo[3,4-b]pyridin-5-yl}ethynyl)pyridin-2-yl]-2-(2-hydroxyethyl)pyridine-3-sulfonamide] yielded a Ki of 67 nM.
Compound `O=S(=O)(Nc1nccc(C#Cc2cnc3[nH]ncc3c2)c1F)c1cccc2c1OCO2` [Example 10, N-[3-Fluoro-4-(2-{1H-pyrazolo[3,4-b]pyridin-5-yl}ethynyl)pyridin-2-yl]-2H-1,3-benzodioxole-4-sulfonamide] has a Ki of 209 nM.
In the case of `Cc1nc(C)c(S(=O)(=O)Nc2nccc(C#Cc3cnc4[nH]ncc4c3)c2F)s1` [Example 6, N-[3-Fluoro-4-(2-{1H-pyrazolo[3,4-b]pyridin-5-yl}ethynyl)pyridin-2-yl]-2,4-dimethyl-1,3-thiazole-5-sulfonamide], the Ki is reported as 29.3 nM.
`Cc1ncc(Cl)cc1S(=O)(=O)Nc1nccc(C#Cc2cnc3[nH]ncc3c2)c1F` [Example 4, 5-Chloro-N-[3-fluoro-4-(2-{1H-pyrazolo[3,4-b]pyridin-5-yl}ethynyl)pyridin-2-yl]-2-methylpyridine-3-sulfonamide] was tested, and the Ki was 2.49 nM.
`Cc1cnc(C)c(S(=O)(=O)Nc2nccc(C#Cc3cnc4[nH]ncc4c3)c2F)c1` [Example 11, N-[3-Fluoro-4-(2-{1H-pyrazolo[3,4-b]pyridin-5-yl}ethynyl)pyridin-2-yl]-2,5-dimethylpyridine-3-sulfonamide] showed a Ki of 8.17 nM.
In the case of `COc1ncccc1S(=O)(=O)Nc1nccc(C#Cc2cnc3[nH]ncc3c2)c1F` [Example 8, N-[3-Fluoro-4-(2-{1H-pyrazolo[3,4-b]pyridin-5-yl}ethynyl)pyridin-2-yl]-2-methoxypyridine-3-sulfonamide], the Ki is reported as 59.9 nM.
With `COc1cccc(S(=O)(=O)Nc2nccc(C#Cc3cnc4[nH]ncc4c3)c2F)c1` [Example 3] the Ki was 128 nM.
`Cc1ncc(F)cc1S(=O)(=O)Nc1nccc(C#Cc2cnc3[nH]ncc3c2)c1F` [Example 16, 5-Fluoro-N-[3-fluoro-4-(2-{1H-pyrazolo[3,4-b]pyridin-5-yl}ethynyl)pyridin-2-yl]-2-methylpyridine-3-sulfonamide] gave a Ki of 4.19 nM.
